Data from article PMC10023787, “Trio-pharmacophore DNA-encoded chemical library for simultaneous selection of fragments and linkers” (Nature Communications, 2023).
Where two headings read alike, the source gives them in different places. Blank lines part the entries; values can stand above or below the compound they belong to.

How the values were obtained:
[1] = molecular target: T1, MMP-2 (Homo sapiens, UniProt P08253); experiment: MMP-2 inhibition assay (fluorogenic peptide substrate); type: biochemical; settings: for IC50: n.d: not detected; for remaining activity (%): MMP-2
T1 construct: purchased Sino Biological 10082-HNAH
T1 sequence (P08253 110-660): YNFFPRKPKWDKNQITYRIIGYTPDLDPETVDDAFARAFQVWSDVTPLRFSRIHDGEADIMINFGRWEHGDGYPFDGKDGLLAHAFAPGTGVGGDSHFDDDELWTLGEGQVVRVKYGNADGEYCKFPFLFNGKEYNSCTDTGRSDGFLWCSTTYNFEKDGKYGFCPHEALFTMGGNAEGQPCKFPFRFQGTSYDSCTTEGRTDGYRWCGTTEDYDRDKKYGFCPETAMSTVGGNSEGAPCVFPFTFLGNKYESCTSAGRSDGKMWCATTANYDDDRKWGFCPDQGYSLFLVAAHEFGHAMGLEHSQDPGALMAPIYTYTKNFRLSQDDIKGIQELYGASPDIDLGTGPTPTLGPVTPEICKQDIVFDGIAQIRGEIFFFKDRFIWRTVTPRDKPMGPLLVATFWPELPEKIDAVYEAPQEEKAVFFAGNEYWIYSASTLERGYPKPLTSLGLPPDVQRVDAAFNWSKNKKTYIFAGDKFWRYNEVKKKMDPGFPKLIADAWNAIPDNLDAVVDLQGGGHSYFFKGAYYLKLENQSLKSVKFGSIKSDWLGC
Experimental: (§1) The inhibition by the small molecule compounds against MMP-2/MMP-9 was measured using an assay probing the enzyme proteolytic activity on the substrate DNP-Pro-Leu-Gly-Met-Trp-Ser-Arg (Enzo Life Sciences, USA). All assays were performed in the assay buffer containing 50 mM Tris, 100 mM NaCl. 5 mM CaCl2, and 0.1% Brij 35, pH 7.5. Human proMMP-2 and proMMP-9 were purchased from Sino biological (Germany). The proMMPs were activated by 1 mM APMA in the assay buffer at 37 °C for 2 h. After activation, MMP-2 was diluted to 6.5 nM of final assay concentration, and MMP-9 was diluted by the buffer to reach 10 nM of final assay concentration. In each well, 49 μl of enzyme solution was incubated with 1 μl of compounds of series of concentration (nM-mM in DMSO) at RT for 30 min. 2 μl of the FRET substrate was added right before the measurement at a final concentration of 25 μM. The rate of hydrolysis was monitored by quantifying the emission at 360 nm (ex: 280 nm). The emission was measured with intervals of the 30 s for 30 min with Synergy H1 Plate Reader (Agilent, USA). The measurements were done in triplicate. […] Then, curves were plotted as a function of the concentration of the inhibitor against the relative enzyme activity. Vmax was derived from the detected […] signal for each concentration and logistic fitting was performed to obtain IC50 values using Origin 2019b (OriginLab).

[2] = molecular target: T2, MMP-9 (Homo sapiens, UniProt P14780); experiment: MMP-9 inhibition assay (fluorogenic peptide substrate); type: biochemical; design: remaining enzyme activity (% of control): scale not given here; settings: for IC50: n.d: not detected; for remaining enzyme activity (% of control): MMP-9
T2 construct: purchased Sino Biological 10327-HNAH
T2 sequence (P14780 107-707 limits assumed): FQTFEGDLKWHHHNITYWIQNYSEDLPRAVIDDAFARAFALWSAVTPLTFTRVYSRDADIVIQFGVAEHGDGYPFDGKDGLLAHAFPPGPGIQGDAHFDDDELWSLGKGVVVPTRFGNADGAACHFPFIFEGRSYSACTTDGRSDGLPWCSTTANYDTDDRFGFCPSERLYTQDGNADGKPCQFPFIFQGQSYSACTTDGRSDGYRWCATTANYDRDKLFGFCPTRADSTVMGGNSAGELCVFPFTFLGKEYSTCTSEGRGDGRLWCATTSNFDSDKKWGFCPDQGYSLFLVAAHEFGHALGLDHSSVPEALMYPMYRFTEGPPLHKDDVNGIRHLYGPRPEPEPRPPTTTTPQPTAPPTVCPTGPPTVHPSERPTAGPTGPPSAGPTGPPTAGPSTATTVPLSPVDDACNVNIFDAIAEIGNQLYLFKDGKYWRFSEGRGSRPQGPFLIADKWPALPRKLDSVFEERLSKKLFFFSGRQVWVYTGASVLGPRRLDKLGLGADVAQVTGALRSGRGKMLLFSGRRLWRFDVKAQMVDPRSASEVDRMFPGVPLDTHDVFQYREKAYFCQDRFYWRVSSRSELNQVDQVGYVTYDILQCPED
Experimental: as §1

[3] = Figure 5d, fragment combination joined by linker, read-out: MMP2 IC50
[4] = Figure 5d, fragment combination joined by linker, read-out: MMP9 IC50

IC50 [1, 3]: 488 µM | IC50 [2, 4]: 77.4 µM
SMILES: O=C(/C=C/CCCCNC(=O)c1cncc(O)c1)CC(=O)NCC12CC3CC(CC(C3)C1)C2 [66_828 12]

remaining activity (%) ([1]; concentration 0.12 µM): 104.18 | remaining activity (%) ([1]; concentration 0.49 µM): 97.92 | remaining activity (%) ([1]; concentration 1.95 µM): 99.61 | remaining activity (%) ([1]; concentration 7.81 µM): 91.81 | remaining activity (%) ([1]; concentration 31.25 µM): 84.92 | remaining activity (%) ([1]; concentration 125.00 µM): 90.24 | remaining activity (%) ([1]; concentration 500.00 µM): 77.04 | remaining enzyme activity (% of control) ([2]; concentration 0.12 µM): 90.98 | remaining enzyme activity (% of control) ([2]; concentration 0.49 µM): 79.87 | remaining enzyme activity (% of control) ([2]; concentration 1.95 µM): 80.91 | remaining enzyme activity (% of control) ([2]; concentration 7.81 µM): 80.18 | remaining enzyme activity (% of control) ([2]; concentration 31.25 µM): 77.01 | remaining enzyme activity (% of control) ([2]; concentration 125.00 µM): 59.34 | remaining enzyme activity (% of control) ([2]; concentration 500.00 µM): 44.40
SMILES: Cn1c(O)nc2cc(C(=O)NCC34CC5CC(CC(C5)C3)C4)cnc21 [66+826 Linker 1]

IC50 [1, 3]: 110 µM | IC50 [2, 4]: 232 µM
SMILES: Cc1cc(=O)[nH]c(-n2nc(C)c(CCC(=O)NCCNC(=O)c3cncc(O)c3)c2C)n1 [693_828 1]

IC50 [1, 3]: 188 µM | IC50 [2, 4]: 233 µM
SMILES: O=C(Cn1cnc2c(oc3ccccc32)c1=O)NCCCCCCCCNC(=O)c1cncc(O)c1 [182_828 4]

IC50 [1, 3]: 212 µM | IC50 [2, 4]: 261 µM
SMILES: Cc1cc(=O)[nH]c(-n2nc(C)c(CCC(=O)NCCCCCCCCNC(=O)c3cncc(O)c3)c2C)n1 [693_828 4]

remaining activity (%) ([1]; concentration 0.12 µM): 91.52 | remaining activity (%) ([1]; concentration 0.49 µM): 100.66 | remaining activity (%) ([1]; concentration 1.95 µM): 95.29 | remaining activity (%) ([1]; concentration 7.81 µM): 98.79 | remaining activity (%) ([1]; concentration 31.25 µM): 92.06 | remaining activity (%) ([1]; concentration 125.00 µM): 94.34 | remaining activity (%) ([1]; concentration 500.00 µM): 70.32 | remaining enzyme activity (% of control) ([2]; concentration 0.12 µM): 100.31 | remaining enzyme activity (% of control) ([2]; concentration 0.49 µM): 99.68 | remaining enzyme activity (% of control) ([2]; concentration 1.95 µM): 96.18 | remaining enzyme activity (% of control) ([2]; concentration 7.81 µM): 93.00 | remaining enzyme activity (% of control) ([2]; concentration 31.25 µM): 90.00 | remaining enzyme activity (% of control) ([2]; concentration 125.00 µM): 80.00 | remaining enzyme activity (% of control) ([2]; concentration 500.00 µM): 69.08
SMILES: Cc1cc(=O)[nH]c(-n2nc(C)c(CCC(=O)NCCCCCCCCNC(=O)c3cnc4c(c3)nc(O)n4C)c2C)n1 [693+826 Linker 4]

IC50 [1, 3]: 77.1 µM | IC50 [2, 4]: 92.1 µM
SMILES: O=C(Cn1cnc2c(oc3ccccc32)c1=O)NCCNC(=O)c1cncc(O)c1 [182_828 1]

remaining activity (%) ([1]; concentration 0.0156 µM): 88.74 | remaining activity (%) ([1]; concentration 0.08 µM): 98.28 | remaining activity (%) ([1]; concentration 0.39 µM): 98.89 | remaining activity (%) ([1]; concentration 1.95 µM): 81.72 | remaining activity (%) ([1]; concentration 9.75 µM): 92.63 | remaining activity (%) ([1]; concentration 48.76 µM): 69.73 | remaining activity (%) ([1]; concentration 243.80 µM): 36.49 | remaining activity (%) ([1]; concentration 1219.00 µM): 2.36 | IC50 ([1]; mean ± SE, Fig. 5d unit inferred, µM, read-out: IC50): 149 ± 25.1 µM | remaining enzyme activity (% of control) ([2]; concentration 0.08 µM): 94.26 | remaining enzyme activity (% of control) ([2]; concentration 0.39 µM): 97.78 | remaining enzyme activity (% of control) ([2]; concentration 1.95 µM): 91.22 | remaining enzyme activity (% of control) ([2]; concentration 9.75 µM): 96.92 | remaining enzyme activity (% of control) ([2]; concentration 48.76 µM): 92.11 | remaining enzyme activity (% of control) ([2]; concentration 243.80 µM): 57.21 | remaining enzyme activity (% of control) ([2]; concentration 1219.00 µM): 9.75 | IC50 ([2]; mean ± SE, Fig. 5e prints no unit, µM, read-out: IC50): 270 ± 31.4 µM
SMILES: Cc1cc(=O)[nH]c(-n2nc(C)c(CCC(=O)NCCSCC(=O)NCc3c[nH]nn3)c2C)n1 [693+787 Linker 24]
